Test results from ChEMBL document CHEMBL5033996, “Design, Synthesis, and Bioactivity Evaluation of Dual-Target Inhibitors of Tubulin and Src Kinase Guided by Crystal Structure” (J Med Chem, 2021).
Active and inactive are the calls of the source. The rule behind the calls is not given here.

Tests used:
Type in all cases: functional, cell-based
[1] = system: Ramos; assay: Antiproliferative activity against human Ramos cells assessed as inhibition of cell proliferation measured after 72 hrs by MTT assay
[2] = system: K562; assay: Antiproliferative activity against human K562 cells assessed as inhibition of cell proliferation measured after 72 hrs by MTT assay; conditions: K562, 72 h
[3] = system: SK-OV-3; assay: Antiproliferative activity against human SK-OV-3 cells assessed as inhibition of cell proliferation measured after 72 hrs by MTT assay; conditions: SK-OV-3, 72 h
[4] = system: SK-OV-3; assay: Induction of mitotic block in human SK-OV-3 cells at 10 to 30 nM in absence of colchicine measured immediately by flow cytometry analysis; conditions: dose 10-30 nM

Q: With `O=C(Cc1ccc(-c2ccc(OCCN3CC4CCC(C3)O4)cc2)cn1)NCc1ccccc1` as the molecule, how does the IC50 [1] read?
A: The IC50 was 3.1 nM.

Q: What about the IC50 [2] of the same molecule?
A: Its IC50 is 6.2 nM.

Q: What about the IC50 [3] of the same molecule?
A: Its IC50 is 3.2 nM.

Q: Which IC50 [1] does the source give for `CC1CCCN(CCOc2ccc(-c3ccc(CC(=O)NCc4ccccc4)nc3)cc2)C1` (configuration not stated) here?
A: Its IC50 is over 100 nM.

Q: What about the IC50 [2] of the same molecule?
A: Its IC50 is over 100 nM.

Q: What about the IC50 [3] of the same molecule?
A: Its IC50 is 57.7 nM.

Q: How did the IC50 [1] turn out when `CC(C)(C)N1CCN(CCOc2ccc(-c3ccc(CC(=O)NCc4ccccc4)nc3)cc2)CC1` was run?
A: Its IC50 is 43.3 nM.

Q: What about the IC50 [2] of the same molecule?
A: The IC50 was over 100 nM.

Q: And the IC50 [3]?
A: The IC50 was 119 nM.

Q: `O=C(Cc1ccc(-c2ccc(OCCNC3CC3)cc2)cn1)NCc1ccccc1` was tested. Which IC50 [1] did it give?
A: The IC50 was 98.1 nM.

Q: And the IC50 [2]?
A: Its IC50 is 29.3 nM.

Q: What about the IC50 [3] of the same molecule?
A: Its IC50 is 5.2 nM.

Q: Which IC50 [1] does the source give for `O=C(Cc1ccc(-c2ccc(OCCCN3CCOCC3)cc2)cn1)NCc1ccccc1` here?
A: The IC50 was 129 nM.

Q: And the IC50 [2]?
A: The IC50 was 50.9 nM.

Q: What about the IC50 [3] of the same molecule?
A: Its IC50 is 15.6 nM.

Q: What does the source list for `O=C(Cc1ccc(-c2ccc(OCCCCN3C[C@@H]4C[C@H]3CO4)cc2)cn1)NCc1ccccc1`?
A: IC50 [1]: 25 nM; IC50 [2]: 53.2 nM; IC50 [3]: 37 nM

Q: What does the source list for `CC(C)(C)OC(=O)N1CCN(CCOc2ccc(-c3ccc(CC(=O)NCc4ccccc4)nc3)cc2)CC1`?
A: IC50 [1]: 15.9 nM; IC50 [2]: > 100 nM; IC50 [3]: 53.3 nM

Q: What does the source list for `O=C(Cc1ccc(-c2ccc(OCCN3CCN(S(=O)(=O)C4CC4)CC3)cc2)cn1)NCc1ccccc1`?
A: IC50 [1]: 4.1 nM; IC50 [2]: 5.8 nM; IC50 [3]: 2.4 nM

Q: For `O=C(Cc1ccc(-c2ccc(OCCCCN3CC4CCC(C3)O4)cc2)cn1)NCc1ccccc1`, which IC50 [1] is on record?
A: The IC50 was 17.3 nM.

Q: What about the IC50 [2] of the same molecule?
A: The IC50 was 40.5 nM.

Q: What about the IC50 [3] of the same molecule?
A: Its IC50 is 21.8 nM.

Q: Which IC50 [1] does the source give for `O=C(Cc1ccc(-c2ccc(OCCCN3CC4CCC(C3)O4)cc2)cn1)NCc1ccccc1` here?
A: The IC50 was 8.6 nM.

Q: What about the IC50 [2] of the same molecule?
A: Its IC50 is 14.6 nM.

Q: What about the IC50 [3] of the same molecule?
A: The IC50 was 7.1 nM.

Q: How did the Activity [4] turn out when `COc1cc2c(c(OC)c1OC)-c1ccc(OC)c(=O)cc1[C@@H](NC(C)=O)CC2` was run?
A: Its Activity is “inactive”.

Q: What does the source list for `O=C(Cc1ccc(-c2ccc(OCCN3CC4CCCCC4C3)cc2)cn1)NCc1ccccc1` (configuration not stated)?
A: IC50 [1]: 19.7 nM; IC50 [2]: 37.9 nM; IC50 [3]: 74.9 nM

Q: With `O=C(Cc1ccc(-c2ccc(OCCN3CCN(C(=O)C4CC4(F)F)CC3)cc2)cn1)NCc1ccccc1` (configuration not stated) as the molecule, how does the IC50 [1] read?
A: The IC50 was 48.1 nM.

Q: What about the IC50 [2] of the same molecule?
A: Its IC50 is 53.5 nM.

Q: And the IC50 [3]?
A: The IC50 was 16.8 nM.
